Laboratory results taken from patent US20230346670A1, “Prebiotic Oral Care Compositions and Methods” (Colgate-Palmolive Company, priority 2020, published 2023).
Marks after values point to notes of the source that are not given here.

Experiments:
Assay type in all cases: cell-based
[1] = tested on: F. nucleatum virulence genes; experiment: Virulence gene expression in multi-species biofilm (SYBR RT-qPCR); conditions: relative to control = 1, 2^-ΔΔCt, n = 3
Procedure: (§1) Biofilms are grown vertically on Calcium Deficient Hydroxyapatite (CAD-HA) disks (Hitemco Medical, Old Bethpage, USA) using the Amsterdam Active Adhesion model. Biofilms are allowed to establish during 24 h (37° C., 170 rpm) under microaerophilic conditions (6% O2, 7% CO2, 7% H2, 80% N2). After this 24 h, disks are rinsed 3 times a day for 3 minutes (RT, 250 rpm), for 3 consecutive days, by transferring the lid containing the disks to a new 24-well plate containing 2 mL/well of the appropriate substrate solution. As a negative control, PBS (pH 5.7) without substrate supplementation is used.
(§2) The virulence of the substrate-treated multi-species biofilms are evaluated by analyzing the relative expression of 33 genes that are recognized as being related to some form of virulence and from 4 periodontal pathogens.
(§3) Expression of bacterial virulence genes is analyzed through SYBR RT-qPCR and normalized for bacterial housekeeping gene expression. […] These effects are illustrated in Tables 6a and 6b:
(§4) Note, for Table 6c, fold changes in virulence gene expression are determined relative to the control condition through the 2^^-ΔΔCt method and are shown as the geometric mean (C.I.) (n = 3) of the 2^^-ΔΔCt values. All substrates are dissolved in PBS at a concentration of 1 M (upper part) or 1%(w/v) (lower part). Values between 0 and 1 represent relative downregulation, values >1 represent relative upregulation. […] NADG: N-acetyl-D-glucosamine; C.I.: 95% confidence interval.

[2] = tested on: human oral keratinocytes (HOK-18A); experiment: Inflammatory mediator gene expression in keratinocytes exposed to substrate-treated biofilms (SYBR RT-qPCR); conditions: for fold change in IL-1β gene expression, geometric mean (C.I.) / fold change in IL-6 gene expression, geometric mean (C.I.) / fold change in IL-8 gene expression, geometric mean (C.I.) / fold change in MMP-8 gene expression, geometric mean (C.I.) / fold change in TNF-α gene expression, geometric mean (C.I.): relative to control, n = 3
Procedure: Cultures of immortalized human oral keratinocytes (HOK-18A) are grown. […] The IL-8 levels in the cellular supernatant are determined as well. RNA is converted to cDNA and relative expression of inflammatory mediator genes is determined as described above with respect to the cellular housekeeping gene β-actin.
In HOKs exposed to substrate-treated (substrate concentrations of […]) multi-species biofilms, there are mostly decreases in inflammatory mediator gene expression as measured via SYBR RT-qPCR, the results of which are detailed in Table 7:
Fold changes in inflammatory mediator gene expression from human oral keratinocytes (HOK-18A) exposed to substrate-treated multi-species biofilms are determined relatively to the control through the 2^^-ΔΔCt method and are shown as the geometric mean (C.I.) (n = 3) of the 2^^-ΔΔCt values. All substrates are dissolved in PBS at a concentration of 1 M (upper part) or 1%(w/v) (lower part). Values between 0 and 1 represent relative downregulation, values >1 represent relative upregulation.

[3] = tested on: A. actinomycetemcomitans virulence genes; experiment: Virulence gene expression in multi-species biofilm (SYBR RT-qPCR)
Procedure: as §1, §2, §3
as §4, with “Note, for Tables 6a and 6b, that fold changes” for “Note, for Table 6c, fold changes”, “of the 2^^-ΔΔ ^Ct values. All” for “of the 2^^-ΔΔCt values. All”

[4] = tested on: P. gingivalis virulence genes; experiment: as above; conditions: relative to control, 2^-ΔΔCt, n = 3
Procedure: as §1, §2, §3
as §4, with “Note, for Tables 6a and 6b, that fold changes” for “Note, for Table 6c, fold changes”, “of the 2^^-ΔΔ ^Ct values. All” for “of the 2^^-ΔΔCt values. All”

[5] = tested on: multi-species biofilm (beneficial/commensal species, periodontal pathogens, cariogenic pathogens); experiment: Multi-species biofilm composition, relative proportions and group changes
Procedure: Biofilms are grown vertically on Calcium Deficient Hydroxyapatite (CAD-HA) disks (Hitemco Medical, Old Bethpage, USA) using the Amsterdam Active Adhesion model. […] After this 24 h, disks are rinsed 3 times a day for 3 minutes (RT, 250 rpm), for 3 consecutive days, by transferring the lid containing the disks to a new 24-well plate containing 2 mL/well of the appropriate substrate solution. As a negative control, PBS (pH 5.7) without substrate supplementation is used. N-acetyl-D-glucosamine (NADG), α-D-lactose, D-(+)-trehalose and D-(+)-raffinose are selected to determine their effects on multi-species biofilm composition. Repeated rinsing of the biofilms with the substrates at a concentration of 1 M results in a significant decrease in absolute numbers in at least four of the pathogenic bacterial species tested in the assay, in comparison to the control, the results of which are described in Table 1 below. Note, NADG decreased absolute numbers of S. sobrinus. Absolute abundances of bacterial species are shown as mean ± SD (n = 3) logarithmic values of the genome equivalents per millilitre (log(Geq/mL)).

[6] = HOK-18A exposed to biofilms treated with substrate 1% (w/v)
[7] = HOK-18A exposed to biofilms treated with substrate 1 M
[8] = lower part of Table 6a, substrate 1%(w/v), relative to control = 1
[9] = substrate 1 M, relative to control = 1, 2^-ΔΔCt, n = 3
[10] = Table 1a, substrate 1 M, listed as α-D-lactose
[11] = Table 3, separate experiments, concentration not given

For `OC[C@H]1O[C@@H](O[C@H]2[C@H](O)[C@@H](O)[C@@H](O)O[C@@H]2CO)[C@H](O)[C@@H](O)[C@H]1O` [D-lactose, α-D-lactose], the “fold change in ABC transp. perm. (ABC transporter permease) expression, geometric mean (95% C.I.)” value ([1]; substrate 1% (w/v)) was 0.25 (0.08-0.78)^∗ fold, the “fold change in EF-G expression, geometric mean (95% C.I.)” value ([1]; substrate 1% (w/v)) was 0.13 (0.03-0.51)^∗ fold and the “fold change in but. -coA transf. (butyrate-acetoacetate CoA-transferase) expression, geometric mean (95% C.I.)” value ([1]; substrate 1% (w/v)) was 0.57 (0.40-0.83) fold. For the same compound, the “fold change in hemin receptor expression, geometric mean (95% C.I.)” value ([1]; substrate 1% (w/v)) was 0.17 (0.03-0.94)^∗ fold, the “fold change in hemolysin expression, geometric mean (95% C.I.)” value ([1]; substrate 1% (w/v)) was 1.00 (0.60-1.68) fold and the “fold change in ompA expression, geometric mean (95% C.I.)” value ([1]; substrate 1% (w/v)) was 1.13 (0.58-2.19) fold. For the same compound, the “fold change in transposase expression, geometric mean (95% C.I.)” value ([1]; substrate 1% (w/v)) was 1.26 (0.51-3.13) fold, the “fold change in ABC transp. perm. (ABC transporter permease) expression, geometric mean (95% C.I.)” value ([1]; substrate 1 M) was 16.97 (5.93-48.61)^∗ fold and the “fold change in EF-G expression, geometric mean (95% C.I.)” value ([1]; substrate 1 M) was 1.54 (0.94-2.53) fold. For the same compound, the “fold change in but. -coA transf. (butyrate-acetoacetate CoA-transferase) expression, geometric mean (95% C.I.)” value ([1]; substrate 1 M) was 3.88 (0.87-17.43)* fold, the “fold change in hemin receptor expression, geometric mean (95% C.I.)” value ([1]; substrate 1 M) was 36.87 (17.27-78.74)^∗ fold and the “fold change in hemolysin expression, geometric mean (95% C.I.)” value ([1]; substrate 1 M) was 6.34 (1.36-29.47)^∗ fold. For the same compound, the “fold change in ompA expression, geometric mean (95% C.I.)” value ([1]; substrate 1 M) was 1.26 (0.79-2.03) fold, the “fold change in transposase expression, geometric mean (95% C.I.)” value ([1]; substrate 1 M) was 172.87 (147.10-203.20)^∗ fold and the “fold change in IL-1β gene expression, geometric mean (C.I.)” value [2, 6] was 0.89 (0.54-1.45) fold. For the same compound, the “fold change in IL-6 gene expression, geometric mean (C.I.)” value [2, 6] was 0.74 (0.56-0.97)^∗ fold, the “fold change in IL-8 gene expression, geometric mean (C.I.)” value [2, 6] was 1.13 (0.71-1.80) fold and the “fold change in MMP-8 gene expression, geometric mean (C.I.)” value [2, 6] was 0.70 (0.62-0.79) fold. For the same compound, the “fold change in TNF-α gene expression, geometric mean (C.I.)” value [2, 6] was 0.81 (0.50-1.33) fold, the “fold change in IL-1β gene expression, geometric mean (C.I.)” value [2, 7] was 0.5 (0.38-0.65)^∗ fold and the “fold change in IL-6 gene expression, geometric mean (C.I.)” value [2, 7] was 0.33 (0.12-0.88)^∗ fold. For the same compound, the “fold change in IL-8 gene expression, geometric mean (C.I.)” value [2, 7] was 0.03 (0.02-0.05)^∗ fold, the “fold change in MMP-8 gene expression, geometric mean (C.I.)” value [2, 7] was 0.78 (0.38-1.61) fold and the “fold change in TNF-α gene expression, geometric mean (C.I.)” value [2, 7] was 0.39 (0.23-0.66)^∗ fold. The “downregulation of IL-1β gene expression” value ([2]; substrate 1 M) was 2 fold, the “downregulation of IL-6 gene expression” value ([2]; substrate 1 M) was 3 fold and the “downregulation of TNF-α gene expression” value ([2]; substrate 1 M) was 2.5 fold. For the same compound, the “fold change in aae expression, geometric mean (95% C.I.)” value [3, 8] was 1.36 (0.70-2.67) fold, the “fold change in apaH expression, geometric mean (95% C.I.)” value [3, 8] was 0.84 (0.29-2.49) fold and the “fold change in cdtB expression, geometric mean (95% C.I.)” value [3, 8] was 0.66 (0.21-2.03) fold. The “fold change in emaA expression, geometric mean (95% C.I.)” value [3, 8] was 0.34 (0.25-0.45)^∗ fold, the “fold change in flp expression, geometric mean (95% C.I.)” value [3, 8] was 0.81 (0.08-7.83) fold and the “fold change in ltxA expression, geometric mean (95% C.I.)” value [3, 8] was 0.04 (0.02-0.08)^∗ fold. For the same compound, the “fold change in omp29 expression, geometric mean (95% C.I.)” value [3, 8] was 0.81 (0.73-0.89) fold, the “fold change in omp100 expression, geometric mean (95% C.I.)” value [3, 8] was 0.34 (0.23-0.49)^∗ fold and the “fold change in orf859 expression, geometric mean (95% C.I.)” value [3, 8] was 0.97 (0.37-2.54) fold. The “fold change in pgA expression, geometric mean (95% C.I.)” value [3, 8] was 0.55 (0.41-0.74) fold, the “fold change in vapA expression, geometric mean (95% C.I.)” value [3, 8] was 0.90 (0.60-1.35) fold and the “fold change in vppA expression, geometric mean (95% C.I.)” value [3, 8] was 0.40 (0.14-1.15)^∗ fold. The “fold change in aae expression, geometric mean (95% C.I.)” value [3, 9] was 0.03 (0.01-0.22)^∗ fold, the “fold change in apaH expression, geometric mean (95% C.I.)” value [3, 9] was 0.04 (0.01-0.21)^∗ fold and the “fold change in cdtB expression, geometric mean (95% C.I.)” value [3, 9] was 0.02 (0.00-0.21)^∗ fold. For the same compound, the “fold change in emaA expression, geometric mean (95% C.I.)” value [3, 9] was 0.08 (0.06-0.11)^∗ fold, the “fold change in flp expression, geometric mean (95% C.I.)” value [3, 9] was 0.44 (0.10-1.94) fold and the “fold change in ltxA expression, geometric mean (95% C.I.)” value [3, 9] was 0.01 (0.00-0.08)^∗ fold. The “fold change in omp29 expression, geometric mean (95% C.I.)” value [3, 9] was 0.42 (0.33-0.52)^∗ fold, the “fold change in omp100 expression, geometric mean (95% C.I.)” value [3, 9] was 0.08 (0.04-0.15)^∗ fold and the “fold change in orf859 expression, geometric mean (95% C.I.)” value [3, 9] was 0.05 (0.00-0.79)^∗ fold. The “fold change in pgA expression, geometric mean (95% C.I.)” value [3, 9] was 4.30 (2.21-8.37)^∗ fold, the “fold change in vapA expression, geometric mean (95% C.I.)” value [3, 9] was 0.22 (0.13-0.36)^∗ fold and the “fold change in vppA expression, geometric mean (95% C.I.)” value [3, 9] was 0.17 (0.06-0.43)^∗ fold. For the same compound, the “fold change in pgA expression, geometric mean (95% C.I.)” value ([3]; substrate 1 M, relative to control = 1, 2^-ΔΔCt, n = 3, listed as α-D-lactose) was 4.3 fold, the “fold change in fimA expression, geometric mean (95% C.I.)” value ([4]; substrate 1 % (w/v)) was 1.48 (0.27-8.02) fold and the “fold change in kgp expression, geometric mean (95% C.I.)” value ([4]; substrate 1 % (w/v)) was 1.95 (0.45-8.59) fold. For the same compound, the “fold change in partC expression, geometric mean (95% C.I.)” value ([4]; substrate 1 % (w/v)) was 0.47 (0.07-3.04) fold, the “fold change in rgpA expression, geometric mean (95% C.I.)” value ([4]; substrate 1 % (w/v)) was 1.49 (0.70-3.20) fold and the “fold change in fimA expression, geometric mean (95% C.I.)” value ([4]; substrate 1 M) was 0.06 (0.00-1.08)^∗ fold. The “fold change in kgp expression, geometric mean (95% C.I.)” value ([4]; substrate 1 M) was “<LOD”, the “fold change in partC expression, geometric mean (95% C.I.)” value ([4]; substrate 1 M) was 0.03 (0.01-0.17)^∗ fold and the “fold change in rgpA expression, geometric mean (95% C.I.)” value ([4]; substrate 1 M) was 0.01 (0.00-4.60)^∗ fold. The “relative proportion of beneficial or commensal species in biofilm” value ([5]; Table 1a, substrate 1 M) was 92.72 (+/- 4.39)^∗ % (Geq/mL), the “relative proportion of cariogenic pathogens in biofilm” value ([5]; Table 1a, substrate 1 M) was 5.82 (+/- 3.94) % (Geq/mL) and the “relative proportion of periodontal pathogens in biofilm” value ([5]; Table 1a, substrate 1 M) was 1.46 (+/- 0.64)^∗ % (Geq/mL). The “relative proportion of beneficial or commensal species in biofilm” value [5, 10] was 92.72±4.39 % (Geq/mL), the “relative proportion of cariogenic pathogens in biofilm” value [5, 10] was 5.82±3.94 % (Geq/mL) and the “relative proportion of periodontal pathogens in biofilm” value [5, 10] was 1.46±0.64 % (Geq/mL). For the same compound, the “relative proportion of beneficials/commensals in biofilm” value [5, 11] was 64.14 (+/- 9.81) % (Geq/mL), the “relative proportion of cariogenic pathogens in biofilm” value [5, 11] was 0.21 (+/- 0.08) % (Geq/mL) and the “relative proportion of periodontal pathogens in biofilm” value [5, 11] was 35.65 (+/- 9.88) % (Geq/mL).
